# Several values for one entry are separate records, joined by “and”; a condition that tells them apart may be missing. Equal values may be shown once.
# Tests used:
# [1] = system: STZ-induced diabetic rats (Wistar); test: Test Example 9: serum insulin in glucose tolerance test, Type I diabetes mellitus model; type: in vivo
# Experimental: Male 7-week-old Wistar rats (Japan SLC, Inc.) were fed CE-2 (Clea Japan, Inc.) for one week, so as to accustom the rats to the environment.
# After 18-hour starvation of the accustomed rats, […] of 50 mM citrate buffer, pH 4.5containing 15 mg of streptozotocin (WAKO Pure Chemical Industries, Inc.; abbreviated as “STZ” hereinafter) was prepared and administered to 25 mg (STZ)/kg body weight from their tail vein. Five days after the STZ administration, the rats were fasted for 18 hours. Blood was taken from puncture in the tail vein to assay blood glucose with a simple-type blood glucose assay apparatus Medisafe Reader GR-101 (Terumo, Co., Ltd.), to select 5 rats (Nos. 1, 3, 4, 5, 8) at mild state of diabetes mellitus with a blood glucose level of 200 mg/dl or less.
# An aqueous 2% solution of 2′-fucosyllactose was prepared and administered to the rat No. 1 from the tail vein to 50 mg/kg body weight on a 2′-FL dose basis. 0.9% physiological saline was administered to rats Nos. 3, 4, 5 and 8. […] Zero minute and 30, 60, 120, and 240 minutes after glucose loading, blood was taken from a tail vein, to assay blood glucose with Medisafe Reader GR-101 and collect the serum.
# 12 days after the STZ dosing, the rats were fasted for 18 hours. […] Zero minute and 30, 60, 120, and 240 minutes after glucose loading, blood was taken from a tail vein, to assay blood glucose with Medisafe Reader GR-101 and collect the serum.
# Insulin in the serum was assayed by enzyme immunoassay using Morinaga ultra-sensitive rat insulin assay kit (Morinaga Biochemical Research Institute, Co., Ltd.) in the same manner as in Test Example 8. Additionally, a standard curve was prepared by diluting […] of the standard insulin (rat) attached to the kit with 100 μl of saline to use the resulting 25.6 ng/ml insulin solution as the standard solution, diluting the standard solution appropriately with the diluent attached to the kit for the same reaction as for the serum, and plotting the relation between the concentration and the absorbance at the principal wave length of 450 nm and at the sub wave length of 655 nm. […]
# [2] = system: ICR mice; test: Test Example 6: serum glucose after intravenous saccharide with simultaneous oral glucose loading; type: in vivo
# Experimental: Groups of male 9-week-old ICR mice (Japan SLC, Inc.) each consisting of 7 mice were fed CE-2 (Clea Japan, Inc.) for one week, so as to accustom the animals to the environment. Then, the mice were fasted for 18 hours.
# An aqueous 10% solution of 2′-FL or NeuAc was intravenously administered to the mice to 500 mg (saccharide)/kg body weight, while an aqueous 40% glucose solution was orally administered simultaneously to 2 g (glucose)/kg body weight, to the mice. To the control group, physiological saline was administered intravenously, while glucose was orally administered simultaneously to 2 g/kg body weight. Zero minute and 30 minutes after glucose loading, blood was taken from a tail vein. […] Blood was centrifuged (4° C., 10000 rpm, 10 minutes), to obtain serum.
# Furthermore, the glucose concentration in the serum recovered was also assayed. The glucose concentration was assayed, using Glucose CII-TEST WAKO (WAKO Pure Chemical Industries, Ltd.). 2 μl of the recovered serum was placed in a 96-well plate, followed by addition of 200 μl of the chromogenic solution attached to the kit, for incubation at 37° C. for 10 minutes. After incubation, the absorbance at 490 nm was assayed with a plate reader. Herein, a standard curve was prepared by using aqueous 500 mg/dl glucose solution as the standard solution to dilute the standard solution appropriately for the same reaction as for the serum, and plotting the relation between the concentration and the absorbance (490 nm). Based on the prepared standard curve and the absorbance from the reaction with the serum, the glucose concentration in the serum was determined.
substance,measurement,setting,value
2′-fucosyllactose [2′-FL],serum insulin concentration via glucose loading (in words),"[1]; STZ-induced diabetic rats, glucose loading 2 hours after intravenous dosing",increased
same,"Serum insulin concentration, 0 minute","[1]; individual STZ rats Nos. 1, 3, 4, 5, 8, 50 mg/kg intravenous two hours before glucose 1 g/kg oral, 0 minute after glucose loading, 50 mg/kg",125.8 pg/mL and 697.0 pg/mL and 197.4 pg/mL and 180.4 pg/mL and 312.5 pg/mL
same,"Serum insulin concentration, 30 minutes","[1]; individual STZ rats Nos. 1, 3, 4, 5, 8, 50 mg/kg intravenous two hours before glucose 1 g/kg oral, 30 minutes after glucose loading, 50 mg/kg",331.1 pg/mL and 586.6 pg/mL and 915.1 pg/mL and 475.5 pg/mL and 148.4 pg/mL
same,"Serum glucose concentration after glucose loading, 30 minutes","[2]; ICR mice fasted 18 hours, 500 mg/kg intravenous with simultaneous glucose 2 g/kg oral, 30 minutes, mean ± SD",331.4 ± 68.6 mg/dL
same,"Serum glucose concentration after glucose loading, 120 minutes","[2]; ICR mice fasted 18 hours, 500 mg/kg intravenous with simultaneous glucose 2 g/kg oral, 120 minutes, mean ± SD",169.2 ± 29.5 mg/dL
same,"Serum glucose concentration after glucose loading, Zero minute","[2]; ICR mice fasted 18 hours, 500 mg/kg intravenous with simultaneous glucose 2 g/kg oral, zero minute, mean ± SD",102.4 ± 23.3 mg/dL
same,increase of the serum glucose concentration compared with the control group (in words),"[2]; ICR mice, intravenous dosing",suppressed
